Test results as given in ChEMBL document CHEMBL6083271 (J Med Chem, 2024).
Activity calls are given as the source filed them. No cut-off for these calls is given here.

Columns and labels:
RS4-11 [1] = assay: Antiproliferative activity against human RS4;11 cells harbouring p53 wild type assessed as inhibition of cell growth measured after 4 days by WST-8 assay; type: functional, cell-based; settings: RS4-11, 96 h
RS4-11 [2] = assay: Antiproliferative activity against human RS4;11 cells harbouring p53 mutant assessed as inhibition of cell growth measured after 4 days by WST-8 assay; type: functional, cell-based; settings: RS4-11, 96 h
[3] = biological target: Protein cereblon/Eukaryotic peptide chain release factor GTP-binding subunit ERF3A (Homo sapiens) (UniProt Q96SW2+P15170); assay: PROTAC activity at CRBN/GSPT1 in human RS4;11 cells assessed as induction of GSPT1 degradation at 10 to 1000 nM measured after 4 hrs by Western blot analysis; type: cell-based; settings: dose 10-1000 nM
Sequence of Protein cereblon/Eukaryotic peptide chain release factor GTP-binding subunit ERF3A (Homo sapiens) (P15170 whole entry, looked up): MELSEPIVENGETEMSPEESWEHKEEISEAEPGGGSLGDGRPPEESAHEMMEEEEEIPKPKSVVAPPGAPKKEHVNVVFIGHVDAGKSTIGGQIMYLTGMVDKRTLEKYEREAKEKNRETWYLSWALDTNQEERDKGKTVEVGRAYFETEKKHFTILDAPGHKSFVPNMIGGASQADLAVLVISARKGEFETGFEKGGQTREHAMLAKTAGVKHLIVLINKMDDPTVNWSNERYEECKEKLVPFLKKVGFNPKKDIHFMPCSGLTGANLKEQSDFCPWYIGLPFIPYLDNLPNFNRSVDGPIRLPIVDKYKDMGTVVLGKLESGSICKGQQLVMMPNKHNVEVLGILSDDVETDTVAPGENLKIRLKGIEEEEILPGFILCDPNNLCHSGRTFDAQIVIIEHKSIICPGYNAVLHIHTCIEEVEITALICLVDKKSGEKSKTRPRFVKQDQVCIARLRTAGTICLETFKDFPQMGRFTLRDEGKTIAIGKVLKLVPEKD
Sequence of Protein cereblon/Eukaryotic peptide chain release factor GTP-binding subunit ERF3A (Homo sapiens) (Q96SW2 whole entry, looked up): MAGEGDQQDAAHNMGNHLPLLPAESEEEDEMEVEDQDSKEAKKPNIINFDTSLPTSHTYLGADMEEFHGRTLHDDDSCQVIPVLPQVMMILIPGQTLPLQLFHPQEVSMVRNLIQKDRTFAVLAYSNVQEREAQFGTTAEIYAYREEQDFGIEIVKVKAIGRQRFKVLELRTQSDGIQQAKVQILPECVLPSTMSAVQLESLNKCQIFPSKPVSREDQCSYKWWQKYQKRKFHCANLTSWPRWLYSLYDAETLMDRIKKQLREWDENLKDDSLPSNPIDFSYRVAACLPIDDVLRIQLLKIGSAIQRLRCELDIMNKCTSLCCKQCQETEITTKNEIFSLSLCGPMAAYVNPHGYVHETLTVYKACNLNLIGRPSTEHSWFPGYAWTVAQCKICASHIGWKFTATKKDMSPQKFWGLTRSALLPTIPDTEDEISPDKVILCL

RS4-11 [4] = assay: Antitumor activity against human RS4;11 cells xenografted in SCID mouse model assessed as tumor regression at 50 mg/kg, iv qd administered every other for 2 weeks by caliper method; type: functional, organism-based
RS4-11 [5] = assay: Antiproliferative activity against human RS4;11 cells assessed as inhibition of cell growth measured after 4 days by WST-8 assay; type: functional, cell-based

| IC50 (RS4-11 [1]) | IC50 (RS4-11 [2]) | Activity [3] | IC50 (RS4-11 [5]; RS4-11, 96 h) | Structure (SMILES) | Activity (RS4-11 [4]) | Activity (RS4-11 [5]; time 4.0 day) |
| --- | --- | --- | --- | --- | --- | --- |
| 4 nM | > 1000 nM | – | – | COc1cc(NC(=O)[C@@H]2NC3(CCCCC3)[C@@]3(C(=O)Nc4cc(Cl)ccc43)[C@H]2c2cccc(Cl)c2F)ccc1C(=O)NCCCC#Cc1cccc2c1CN(C1CCC(=O)NC1=O)C2=O (stereo not given in full) | – | – |
| 8 nM | > 1000 nM | – | – | COc1cc(C(=O)NCCCC#Cc2cccc3c2CN(C2CCC(=O)NC2=O)C3=O)ccc1NC(=O)[C@@H]1NC2(CCCCC2)[C@@]2(C(=O)Nc3cc(Cl)ccc32)[C@H]1c1cccc(Cl)c1F (stereo not given in full) | – | – |
| 3 nM | 3 nM | Active | – | O=C1CCC(N2Cc3c(C#CCCCNC(=O)c4cccc(NC(=O)[C@@H]5NC6(CCCCC6)[C@@]6(C(=O)Nc7cc(Cl)ccc76)[C@H]5c5cccc(Cl)c5F)c4)cccc3C2=O)C(=O)N1 (stereo not given in full) | – | – |
| 9 nM | > 1000 nM | – | – | O=C1CCC(N2Cc3c(NCC4CCN(CCNC(=O)c5ccc(NC(=O)[C@@H]6NC7(CCCCC7)[C@@]7(C(=O)Nc8cc(Cl)ccc87)[C@H]6c6cccc(Cl)c6F)cc5)CC4)cccc3C2=O)C(=O)N1 (stereo not given in full) | – | – |
| 8 nM | > 1000 nM | – | – | O=C1CCC(N2Cc3c(C#CCCCNC(=O)c4ccc(NC(=O)[C@@H]5NC6(CCCCC6)[C@@]6(C(=O)Nc7cc(Cl)ccc76)[C@H]5c5cccc(Cl)c5F)c(F)c4)cccc3C2=O)C(=O)N1 (stereo not given in full) | – | – |
| 3 nM | > 1000 nM | – | – | O=C1CCC(N2Cc3c(C#CCCCNC(=O)C45CCC(NC(=O)[C@@H]6NC7(CCCCC7)[C@@]7(C(=O)Nc8cc(Cl)ccc87)[C@H]6c6cccc(Cl)c6F)(CC4)CC5)cccc3C2=O)C(=O)N1 (stereo not given in full) | – | – |
| 37 nM | > 1000 nM | – | – | O=C1CCC(N2Cc3c(NC4CN(C(=O)c5ccc(NC(=O)[C@@H]6NC7(CCCCC7)[C@@]7(C(=O)Nc8cc(Cl)ccc87)[C@H]6c6cccc(Cl)c6F)cc5)C4)cccc3C2=O)C(=O)N1 (stereo not given in full) | – | – |
| 7 nM | > 1000 nM | – | – | O=C1CCC(N2Cc3c(CCc4cn(CCCNC(=O)c5ccc(NC(=O)[C@@H]6NC7(CCCCC7)[C@@]7(C(=O)Nc8cc(Cl)ccc87)[C@H]6c6cccc(Cl)c6F)cc5)cn4)cccc3C2=O)C(=O)N1 (stereo not given in full) | Active; Compound Showed Minimal Tumor Growth Inhibition | – |
| 3 nM | > 1000 nM | – | – | O=C1CCC(N2Cc3c(C#CCCCNC(=O)c4ccc(NC(=O)[C@@H]5NC6(CCCCC6)[C@@]6(C(=O)Nc7cc(Cl)ccc76)[C@H]5c5cccc(Cl)c5F)cc4F)cccc3C2=O)C(=O)N1 (stereo not given in full) | – | – |
| 200 nM | > 1000 nM | – | – | O=C1CCC(N2Cc3c(C#C[C@H]4CC[C@H](NC(=O)c5ccc(NC(=O)[C@@H]6NC7(CCCCC7)[C@@]7(C(=O)Nc8cc(Cl)ccc87)[C@H]6c6cccc(Cl)c6F)cc5)CC4)cccc3C2=O)C(=O)N1 (stereo not given in full) | – | – |
| 0.9 nM | > 1000 nM | – | 1 nM | O=C1CCC(N2Cc3c(C#CCCCNC(=O)[C@H]4CC[C@H](NC(=O)[C@@H]5NC6(CCCCC6)[C@@]6(C(=O)Nc7cc(Cl)ccc76)[C@H]5c5cccc(Cl)c5F)CC4)cccc3C2=O)C(=O)N1 (stereo not given in full) | Active | – |
| 2 nM | > 1000 nM | – | – | O=C1CCC(N2Cc3c(C#CCCCNC(=O)c4ccc(NC(=O)[C@@H]5NC6(CCCCC6)[C@@]6(C(=O)Nc7cc(Cl)ccc76)[C@H]5c5cccc(Cl)c5F)nc4)cccc3C2=O)C(=O)N1 (stereo not given in full) | – | – |
| 7 nM | > 1000 nM | – | – | O=C1CCC(N2Cc3c(C#CCCCNC(=O)c4ccc(NC(=O)[C@@H]5NC6(CCCCC6)[C@@]6(C(=O)Nc7cc(Cl)ccc76)[C@H]5c5cccc(Cl)c5F)cn4)cccc3C2=O)C(=O)N1 (stereo not given in full) | – | – |
| – | – | – | – | CN1C(=O)CCC(N2Cc3c(C#CC4CCN(C(=O)[C@H]5CC[C@H](NC(=O)[C@@H]6NC7(CCCCC7)[C@@]7(C(=O)Nc8cc(Cl)ccc87)[C@H]6c6cccc(Cl)c6F)CC5)CC4)cccc3C2=O)C1=O (stereo not given in full) | – | Active; Compound Showed Weaker Cell Growth Inhibition |
| 8 nM | > 1000 nM | – | – | O=C1CCC(N2Cc3c(NCC4CN(CCNC(=O)c5ccc(NC(=O)[C@@H]6NC7(CCCCC7)[C@@]7(C(=O)Nc8cc(Cl)ccc87)[C@H]6c6cccc(Cl)c6F)cc5)C4)cccc3C2=O)C(=O)N1 (stereo not given in full) | – | – |
| 8 nM | > 1000 nM | – | – | O=C1CCC(N2Cc3c(NC4CCN(CCNC(=O)c5ccc(NC(=O)[C@@H]6NC7(CCCCC7)[C@@]7(C(=O)Nc8cc(Cl)ccc87)[C@H]6c6cccc(Cl)c6F)cc5)CC4)cccc3C2=O)C(=O)N1 (stereo not given in full) | – | – |
| 3 nM | 7 nM | – | – | O=C1CCC(N2Cc3c(C#CCCCNC(=O)[C@H]4C[C@H](NC(=O)[C@@H]5NC6(CCCCC6)[C@@]6(C(=O)Nc7cc(Cl)ccc76)[C@H]5c5cccc(Cl)c5F)C4)cccc3C2=O)C(=O)N1 (stereo not given in full) | – | – |
| 2 nM | 3 nM | – | – | O=C1CCC(N2Cc3c(C#CCCCNC(=O)C45CCC(NC(=O)[C@@H]6NC7(CCCCC7)[C@@]7(C(=O)Nc8cc(Cl)ccc87)[C@H]6c6cccc(Cl)c6F)(CC4)C5)cccc3C2=O)C(=O)N1 (stereo not given in full) | – | – |
| > 1000 nM | > 1000 nM | – | – | O=C1CCC(N2Cc3c(C#CCCCCN4CCC(NC(=O)C5CCC(NC(=O)[C@@H]6NC7(CCCCC7)[C@@]7(C(=O)Nc8cc(Cl)ccc87)[C@H]6c6cccc(Cl)c6F)CC5)CC4)cccc3C2=O)C(=O)N1 (stereo not given in full) | – | – |
| 34 nM | > 1000 nM | – | – | O=C1CCC(N2Cc3c(CC[C@H]4CC[C@H](NC(=O)c5ccc(NC(=O)[C@@H]6NC7(CCCCC7)[C@@]7(C(=O)Nc8cc(Cl)ccc87)[C@H]6c6cccc(Cl)c6F)cc5)CC4)cccc3C2=O)C(=O)N1 (stereo not given in full) | – | – |
| 19 nM | > 1000 nM | – | – | O=C1CCC(N2Cc3c(NCC4CCN(C(=O)c5ccc(NC(=O)[C@@H]6NC7(CCCCC7)[C@@]7(C(=O)Nc8cc(Cl)ccc87)[C@H]6c6cccc(Cl)c6F)cc5)CC4)cccc3C2=O)C(=O)N1 (stereo not given in full) | – | – |
| 3 nM | 7 nM | – | – | O=C1CCC(N2Cc3c(C#CCCCNC(=O)C45CC(NC(=O)[C@@H]6NC7(CCCCC7)[C@@]7(C(=O)Nc8cc(Cl)ccc87)[C@H]6c6cccc(Cl)c6F)(C4)C5)cccc3C2=O)C(=O)N1 (stereo not given in full) | – | – |
| 19 nM | 33 nM | – | – | O=C1CCC(N2Cc3c(NC4CCN(C(=O)c5ccc(NC(=O)[C@@H]6NC7(CCCCC7)[C@@]7(C(=O)Nc8cc(Cl)ccc87)[C@H]6c6cccc(Cl)c6F)cc5)CC4)cccc3C2=O)C(=O)N1 (stereo not given in full) | – | – |
| 50 nM | > 1000 nM | – | – | O=C1CCC(N2Cc3c(NC4CN(CCNC(=O)c5ccc(NC(=O)[C@@H]6NC7(CCCCC7)[C@@]7(C(=O)Nc8cc(Cl)ccc87)[C@H]6c6cccc(Cl)c6F)cc5)C4)cccc3C2=O)C(=O)N1 (stereo not given in full) | – | – |
| 19 nM | > 1000 nM | – | – | O=C1CCC(N2Cc3c(NCC4CN(C(=O)c5ccc(NC(=O)[C@@H]6NC7(CCCCC7)[C@@]7(C(=O)Nc8cc(Cl)ccc87)[C@H]6c6cccc(Cl)c6F)cc5)C4)cccc3C2=O)C(=O)N1 (stereo not given in full) | – | – |
| 5 nM | > 1000 nM | – | – | O=C(CN1CCC(NC(=O)[C@@H]2NC3(CCCCC3)[C@@]3(C(=O)Nc4cc(Cl)ccc43)[C@H]2c2cccc(Cl)c2F)CC1)NCCCC#Cc1cccc2c1CN(C1CCC(=O)NC1=O)C2=O (stereo not given in full) | inactive | – |
| 19 nM | > 1000 nM | – | – | O=C1CCC(N2Cc3c(CCC4CCN(C(=O)c5ccc(NC(=O)[C@@H]6NC7(CCCCC7)[C@@]7(C(=O)Nc8cc(Cl)ccc87)[C@H]6c6cccc(Cl)c6F)cc5)CC4)cccc3C2=O)C(=O)N1 (stereo not given in full) | – | – |
| > 1000 nM | > 1000 nM | – | – | O=C1CCC(N2Cc3c(C#CCCCNC(=O)C4CCN(C(=O)[C@@H]5NC6(CCCCC6)[C@@]6(C(=O)Nc7cc(Cl)ccc76)C5c5cccc(Cl)c5F)CC4)cccc3C2=O)C(=O)N1 (single isomer, unassigned) | – | – |
